Measurements reported in ChEMBL document CHEMBL1201862, “PubChem BioAssay data set” (2004).
Activity calls are given as the source filed them.

Assays:
[1] = target: T1, E3 ubiquitin-protein ligase XIAP (Homo sapiens, UniProt P98170); test: XIAP antagonists, biochemical, IAP family, fluorescence polarization (AID 1018); type: functional
[2] = target: T1, E3 ubiquitin-protein ligase XIAP; test: Counter Screen using XIAP-Bir3 for Chemical Antagonists of Bir1/2 domains of IAP-family anti-apoptotic proteins. [Related pubchem assays (depositor defined):AID1018, AID1449, AID1514, AID1638, AID1749, AID1750, AID488957, AID488963]
Cytochrome P450 3A4 = Cytochrome P450 3A4 (Homo sapiens, UniProt P08684);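 also: CYP3A4 tested as one member of a cytochrome P450 panel screen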
Cytochrome P450 3A4, sequence (P08684 whole entry): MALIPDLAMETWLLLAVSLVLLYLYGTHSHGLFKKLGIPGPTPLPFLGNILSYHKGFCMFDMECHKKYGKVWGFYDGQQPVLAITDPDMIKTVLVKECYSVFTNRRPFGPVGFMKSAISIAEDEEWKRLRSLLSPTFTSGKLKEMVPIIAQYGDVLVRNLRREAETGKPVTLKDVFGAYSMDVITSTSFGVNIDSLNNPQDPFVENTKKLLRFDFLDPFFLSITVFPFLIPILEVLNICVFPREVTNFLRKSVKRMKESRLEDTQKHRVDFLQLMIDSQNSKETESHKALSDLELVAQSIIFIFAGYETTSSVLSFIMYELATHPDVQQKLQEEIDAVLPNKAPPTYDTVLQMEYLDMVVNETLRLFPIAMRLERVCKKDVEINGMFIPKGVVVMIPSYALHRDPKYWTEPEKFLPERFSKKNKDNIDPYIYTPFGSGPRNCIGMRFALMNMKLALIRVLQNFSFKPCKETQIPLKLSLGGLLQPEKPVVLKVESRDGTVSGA

Cytochrome P450 2D6 = Cytochrome P450 2D6 (Homo sapiens, UniProt P10635);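 also: CYP2D6 member of a cytochrome P450 panel assay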
Cytochrome P450 2D6, sequence (P10635 whole entry): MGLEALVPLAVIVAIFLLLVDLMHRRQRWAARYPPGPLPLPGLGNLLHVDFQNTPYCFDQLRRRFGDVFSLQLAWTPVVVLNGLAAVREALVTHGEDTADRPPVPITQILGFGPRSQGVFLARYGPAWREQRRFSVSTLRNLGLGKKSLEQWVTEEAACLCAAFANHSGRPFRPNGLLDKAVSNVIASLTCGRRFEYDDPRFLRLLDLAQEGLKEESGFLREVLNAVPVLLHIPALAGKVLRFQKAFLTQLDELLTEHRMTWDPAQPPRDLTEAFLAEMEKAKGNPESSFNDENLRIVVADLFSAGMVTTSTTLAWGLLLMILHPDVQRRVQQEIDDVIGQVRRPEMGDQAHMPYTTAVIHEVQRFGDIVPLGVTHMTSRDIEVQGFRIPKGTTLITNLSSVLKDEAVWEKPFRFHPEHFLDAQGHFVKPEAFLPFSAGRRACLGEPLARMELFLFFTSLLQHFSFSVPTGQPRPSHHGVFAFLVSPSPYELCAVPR

Cytochrome P450 1A2 = target: T2, Cytochrome P450 1A2 (Homo sapiens, UniProt P05177);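 also: PubChem cytochrome P450 panel assay, CYP1A2 panel member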
T2 sequence (P05177 whole entry): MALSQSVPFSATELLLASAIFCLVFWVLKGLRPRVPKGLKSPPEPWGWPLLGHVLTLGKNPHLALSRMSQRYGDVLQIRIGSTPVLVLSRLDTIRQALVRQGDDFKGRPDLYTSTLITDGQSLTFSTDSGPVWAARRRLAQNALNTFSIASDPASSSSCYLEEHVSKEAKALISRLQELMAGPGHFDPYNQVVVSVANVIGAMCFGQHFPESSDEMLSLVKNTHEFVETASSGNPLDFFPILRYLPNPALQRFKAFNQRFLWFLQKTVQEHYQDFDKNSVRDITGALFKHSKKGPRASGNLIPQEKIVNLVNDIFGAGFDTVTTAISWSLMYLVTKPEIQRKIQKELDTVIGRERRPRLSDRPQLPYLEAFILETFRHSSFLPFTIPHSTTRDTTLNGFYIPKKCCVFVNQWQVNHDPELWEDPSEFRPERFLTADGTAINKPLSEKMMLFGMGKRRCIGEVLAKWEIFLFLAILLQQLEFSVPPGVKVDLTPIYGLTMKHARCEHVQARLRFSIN

BJ [3] = test: cytotoxicity toward BJ-TERT fibroblasts, dose response, cell-based, RAS-independent, luminescence (AID 1933); type: functional; conditions: Homo sapiens
BJ [4] = test: cytotoxicity toward Ras-transformed BJeLR fibroblasts, dose response, cell-based, alamar blue fluorescence, cherrypicked samples (AID 2631); type: functional; conditions: Homo sapiens;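 also: confirmatory dose-response assay in RAS-dependent BJ fibroblasts engineered with TERT, LT and ST, with cytotoxicity read by fluorescence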
BJ [5] = test: cells; type: functional, cell-based; conditions: Homo sapiens
[6] = cytotoxicity toward DRD oncogenic fibroblasts, dose response, cell-based, non-viral oncogenic, luminescence (AID 1934); type: functional; conditions: Homo sapiens
BJ [7] = test: cytotoxicity toward BJ-TERT-LT-ST fibroblasts, dose response, cell-based, RAS-independent, luminescence (AID 1935); type: functional; conditions: Homo sapiens;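 also: BJ fibroblasts immortalized with TERT plus LT and ST oncogenes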
H4 = test: Luminescence Cell-Based Dose Response HTS to Identify Activators of 5'UTR Stem-Loop Driven Prion Protein mRNA Translation in H4 Neuroglioblastoma Cells. [Related pubchem assays: 1829 (Project Summary), 1814 (Primary HTS)]; type: functional; conditions: Homo sapiens
[8] = Luminescence Cell-Based Dose Response HTS to Identify Activators of Luciferase Translation or Activity in H4 […] Cells. [Related pubchem assays: 1829 (Project Summary), 1814 (Primary HTS)]; type: functional
INS1 = test: beta cell apoptosis inhibitors, cytokine rescue, dose response, luminescence, retest (AID 449756); type: functional, cell-based; conditions: Rattus norvegicus;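 also: cell death triggered by IL-1 beta plus TNF-alpha plus IFN-gamma mixture; protective hits raise ATP signal compared with cytokine alone wells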
[9] = target: T3, Microphthalmia-associated transcription factor (Homo sapiens, UniProt O75030); test: TRPM1 promoter luciferase signal decrease, dose response, MITF inhibitor project, cell-based, SK-MEL-5, cherry-picked, set 3 (AID 493073); type: functional
T3 sequence (O75030 whole entry): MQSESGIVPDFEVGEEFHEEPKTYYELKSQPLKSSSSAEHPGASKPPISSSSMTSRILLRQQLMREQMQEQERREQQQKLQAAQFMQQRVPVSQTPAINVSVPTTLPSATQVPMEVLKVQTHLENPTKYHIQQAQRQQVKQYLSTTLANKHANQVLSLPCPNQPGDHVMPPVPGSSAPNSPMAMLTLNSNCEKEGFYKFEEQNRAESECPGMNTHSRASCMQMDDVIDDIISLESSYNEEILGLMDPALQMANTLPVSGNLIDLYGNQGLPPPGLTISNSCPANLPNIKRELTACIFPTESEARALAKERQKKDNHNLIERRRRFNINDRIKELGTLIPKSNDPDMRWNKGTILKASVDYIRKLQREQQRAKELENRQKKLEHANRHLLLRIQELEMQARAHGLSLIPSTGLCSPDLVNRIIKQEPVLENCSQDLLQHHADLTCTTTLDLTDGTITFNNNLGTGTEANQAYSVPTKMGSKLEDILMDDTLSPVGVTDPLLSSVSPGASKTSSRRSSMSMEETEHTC

[10] = Shn3 3'UTR reporter inhibitors, dose response, cell-based, Clone20 osteoblasts, firefly luciferase, cherry-picked (AID 624132); type: functional;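 also: firefly luciferase luminescence from reporter carrying the Shn3 3'UTR in osteoblasts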
[11] = Luminescence Cell-Based Dose Confirmation HTS to Identify Activators of 5'UTR Stem-Loop Driven Alpha-Synuclein mRNA Translation in H4 Neuroglioblastoma Cells. [Related pubchem assays: 1829 (Project Summary), 1814 (Primary HTS)]; type: functional
[12] = Luminescence Cell-Based Dose Retest to Confirm Inhibitors of Cancer Stem Cells. [Related pubchem assays (depositor defined):AID2717, AID2721]; type: functional; conditions: Homo sapiens
SN12K1 = test: cells; type: functional; conditions: Homo sapiens
P388/ADR = test: cells; type: functional; conditions: Mus musculus
P388 = test: cells; type: functional; conditions: Mus musculus
[13] = target: 72 kDa type IV collagenase (Homo sapiens, UniProt P08253); test: Dose Response validation of uHTS RPN11 inhibitor hits using a MMP-2 Fluorescence assay.; type: functional
72 kDa type IV collagenase, sequence (P08253 whole entry): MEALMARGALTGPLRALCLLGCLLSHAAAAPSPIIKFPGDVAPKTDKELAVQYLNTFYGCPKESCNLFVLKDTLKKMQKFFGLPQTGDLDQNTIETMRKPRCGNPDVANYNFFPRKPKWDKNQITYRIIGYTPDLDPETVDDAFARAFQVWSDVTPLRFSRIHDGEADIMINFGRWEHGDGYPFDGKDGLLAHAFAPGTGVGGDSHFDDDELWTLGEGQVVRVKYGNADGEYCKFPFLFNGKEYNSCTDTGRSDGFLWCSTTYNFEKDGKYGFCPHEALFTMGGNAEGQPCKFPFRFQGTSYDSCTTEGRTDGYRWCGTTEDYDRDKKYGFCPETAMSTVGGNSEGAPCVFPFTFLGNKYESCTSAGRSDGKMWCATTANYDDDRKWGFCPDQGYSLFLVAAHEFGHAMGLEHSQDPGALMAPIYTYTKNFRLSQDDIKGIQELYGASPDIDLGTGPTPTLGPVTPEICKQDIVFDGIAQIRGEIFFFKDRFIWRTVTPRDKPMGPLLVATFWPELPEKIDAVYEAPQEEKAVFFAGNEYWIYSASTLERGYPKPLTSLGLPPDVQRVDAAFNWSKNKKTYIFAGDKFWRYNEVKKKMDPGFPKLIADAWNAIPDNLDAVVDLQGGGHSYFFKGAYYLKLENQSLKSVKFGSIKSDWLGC

[14] = target: 26S proteasome non-ATPase regulatory subunit 14 (Homo sapiens, UniProt O00487); test: inhibition of proteasome subunit RPN11 – biochemical, fluorescence polarization, uHTS hits, confirmation (AID 602368); type: functional
26S proteasome non-ATPase regulatory subunit 14, sequence (O00487 whole entry, the tested form may be a part): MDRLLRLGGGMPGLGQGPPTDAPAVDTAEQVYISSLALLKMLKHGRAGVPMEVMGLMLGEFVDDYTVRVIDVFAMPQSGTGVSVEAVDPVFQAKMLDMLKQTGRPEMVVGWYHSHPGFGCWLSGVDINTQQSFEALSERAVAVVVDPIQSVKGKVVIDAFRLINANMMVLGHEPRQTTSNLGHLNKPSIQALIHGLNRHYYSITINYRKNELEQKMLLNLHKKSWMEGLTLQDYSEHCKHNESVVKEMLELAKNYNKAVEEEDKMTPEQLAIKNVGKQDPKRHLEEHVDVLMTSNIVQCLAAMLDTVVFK

[15] = target: T4, Carboxy-terminal domain RNA polymerase II polypeptide A small phosphatase 1 (Homo sapiens, UniProt Q9GZU7); test: inhibitors of CTDSP1, concentration-response testing, biochemical assay, absorbance-based, actives from ultra-high-throughput screening (AID 540297); type: functional
T4 sequence (Q9GZU7 whole entry): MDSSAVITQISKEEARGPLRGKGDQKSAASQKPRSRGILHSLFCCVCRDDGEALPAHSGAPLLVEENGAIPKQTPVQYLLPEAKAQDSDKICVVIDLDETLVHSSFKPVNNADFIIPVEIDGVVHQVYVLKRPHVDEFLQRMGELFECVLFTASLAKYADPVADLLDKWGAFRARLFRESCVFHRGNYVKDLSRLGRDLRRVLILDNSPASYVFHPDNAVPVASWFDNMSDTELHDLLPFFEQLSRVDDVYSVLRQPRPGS

Prothrombin = Prothrombin (Bos taurus, UniProt P00735); test: thrombin inhibition, dose response, biochemical, fluorescence polarization, uHTS hits (AID 602369); type: functional

T1 sequence (P98170 whole entry): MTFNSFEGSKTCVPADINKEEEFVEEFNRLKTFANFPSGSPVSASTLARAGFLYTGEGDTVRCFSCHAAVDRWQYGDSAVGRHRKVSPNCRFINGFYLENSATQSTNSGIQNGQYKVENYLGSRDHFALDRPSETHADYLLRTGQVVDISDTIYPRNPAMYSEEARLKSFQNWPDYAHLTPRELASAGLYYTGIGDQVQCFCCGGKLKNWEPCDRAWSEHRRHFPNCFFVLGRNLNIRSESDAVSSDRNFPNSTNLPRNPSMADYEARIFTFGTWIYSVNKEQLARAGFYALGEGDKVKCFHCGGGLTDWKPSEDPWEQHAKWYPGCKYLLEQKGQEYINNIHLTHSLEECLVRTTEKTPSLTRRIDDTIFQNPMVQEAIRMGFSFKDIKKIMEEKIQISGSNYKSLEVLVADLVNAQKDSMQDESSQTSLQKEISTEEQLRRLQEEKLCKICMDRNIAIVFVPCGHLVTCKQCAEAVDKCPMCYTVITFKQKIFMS

Cc1cc(Cl)ccc1OCC(=O)Nc1ccccc1CO
IC50 [1]: > 100 µM (not active)
IC50 [2]: > 100 µM (inactive)

C#CCN[C@@H](C)Cc1ccccc1
AC50 (Cytochrome P450 3A4): inconclusive
AC50 (Cytochrome P450 2D6): 25.1 µM (inconclusive)
AC50 (Cytochrome P450 1A2): 15.8 µM (inconclusive)

CC(C)C(=O)Nc1ccc(C(=O)NCc2cccnc2)cc1
EC50 (BJ [3]): > 150 µM (not active)
EC50 (BJ [4]): 18.9 µM (active)
EC50 (BJ [5]): 3.86 µM (active)
EC50 [6]: > 150 µM (not active)
EC50 (BJ [7]): 19.4 µM (inconclusive)

CCOC(=O)c1c(C)nc2c(c1-c1ccccc1)C(=O)CCC2
AC50 (Cytochrome P450 3A4): inconclusive

COc1ccc(C(N)=NOC(=O)Cc2ccc(C)cc2)cc1
IC50 [1]: > 100 µM (not active)
IC50 [2]: > 100 µM (inactive)

CCN(CC)Cc1c(O)ccc2c1O/C(=C\C=C\c1ccccc1)C2=O
EC50 (H4): > 120 µM (not active)
EC50 [8]: 29.6 µM (active)
AC50 (INS1): > 120 µM (inactive)
AC50 [9]: 47.6 µM (active)
EC50 (BJ [3]): > 150 µM (not active)
EC50 (BJ [4]): > 133 µM (inactive)
EC50 (BJ [5]): > 150 µM (not active)
AC50 [10]: 1.96 µM (active)
EC50 [11]: 16.5 µM (active)
EC50 [6]: 55.7 µM (active)
AC50 [12]: 16.6 µM (active)
EC50 (BJ [7]): > 150 µM (inconclusive)

C/C(=N\NC(=S)N1CC2CCC(CC2)C1)c1nccs1
GI50 (SN12K1): < 0.01 µM (active)
GI50 (P388/ADR): < 0.01 µM (active)
GI50 (P388): < 0.01 µM (active)

Cc1ccc(CSCC(=O)N/N=C/c2ccc(OCC(=O)Nc3ccc(C)cc3)cc2)cc1
IC50 [13]: > 100 µM (inactive)
IC50 [14]: 11.9 µM (active)
IC50 [15]: 3.43 µM (active)
IC50 (Prothrombin): 96.9 µM (active)

CN1CCN(c2ccc(NC(=S)NC(=O)c3cccc4ccccc34)cc2)CC1
AC50 [9]: 9 µM (active)

COc1ccccc1NC(=O)CCc1nc2sc3c(c2c(=O)[nH]1)CCCC3
IC50 [13]: > 100 µM (inactive)
IC50 [14]: 33.1 µM (active)
IC50 (Prothrombin): 47.9 µM (active)
